# Measured values from PMC8846325, “A Photoactivable Natural Product with Broad Antiviral Activity against Enveloped Viruses, Including Highly Pathogenic Coronaviruses” (Antimicrobial Agents and Chemotherapy, 2022).
# Columns and labels:
# HCoV-229E [1] = test: HCoV-229E-Luc infection inhibition luciferase assay; type: cell-based; conditions: for antiviral activity against HCoV-229E-Luc, screening of related compounds: Huh-7 cells, 1, 5, 10 µM, light exposure; for light dependence of antiviral effect: HCoV-229E, light versus dark
# HCoV-229E [2] = test: Quencher assay (singlet oxygen quenchers); type: cell-based
# Huh-7 cells = test: MTS cell toxicity assay, Huh-7 cells; type: cell-based; conditions: Huh-7 cells; for CC50: 24 h, light exposure
# Experimental: (§1) A total of 6 × 10^4 Huh-7, Vero-E6, and Vero-81 cells were seeded in 96-well plates and incubated for 16 h at 37°C in a 5% CO2 incubator. The cells were then treated with increasing concentrations of the compound of interest. One hour after inoculation, cells were taken out of the incubator to be exposed to the white light of a biosafety cabinet (BSC) for 10 min, after which cells were further incubated in the dark at 37°C and 5% CO2 for 23 h. The BSC’s light source lamp consists of one fluorescent tube of 36 W, 3,350 lumen, white light. An MTS [3-(4,5-dimethylthiazol-2-yl)-5-(3-carboxymethoxyphenyl)-2-(4-sulfophenyl)-2H-tetrazolium]-based viability assay (Cell Titer 96 aqueous nonradioactive cell proliferation assay; Promega) was performed as recommended by the manufacturer. The absorbance of formazan at 490 nm was detected using a plate reader (ELX 808 Bio-Tek Instruments Inc.). Each measure was performed in triplicate, and each experiment was repeated at least 3 times.
# (§2) 6×104 Huh-7, Vero-E6 and Vero-81 cells were seeded in 96-well plates and incubated for 16 h at 37 °C 5% CO2 incubator. The cells were then treated with increasing concentrations of the compound of interest. One hour after inoculation, cells were either left in the incubator (dark condition) or taken out to be exposed to the white light of the biosafety cabinet (BSC) for 10 min (light condition), after which cells were further incubated in the dark at 37 °C 5% CO2 for 23 h. BSC’s light source lamp consists of one fluorescent tube of 36W, 3350 lumen white light. An MTS [3-(4,5-dimethylthiazol-2-yl)-5-(3-carboxymethoxyphenyl)-2-(4-sulfophenyl)- 2H-tetrazolium]-based viability assay (Cell Titer 96 Aqueous non-radioactive cell proliferation assay, Promega) was performed as recommended by the manufacturer. The absorbance of formazan at 490 nm was detected using a plate reader (ELX 808 Bio-Tek […]
# (§3) Instruments Inc). […]
# SARS-CoV-2 [3] = type: cell-based
# [4] = MTS cell toxicity assay, Huh-7 cells; type: cell-based; conditions: human, Huh-7 cells, 24 h
# Experimental: as §1, §2, §3
# MERS-CoV [5] = test: microbe, parasite or virus in culture; type: cell-based
# MERS-CoV [6] = type: cell-based; conditions: Mucilair cells, 2.5 μM, 72 h postinoculation
# yellow fever virus (YFV) = type: cell-based; conditions: 1 and 2.5 μM, light 30 min prior to inoculation
# coxsackievirus (CVB4) = type: cell-based, Coxsackievirus B4
# Sindbis virus (SINV) = type: cell-based
# HCoV-229E [7] = test: Time-of-addition assay, HCoV-229E-Luc; type: cell-based
# Vero-E6 cells = test: MTS cell toxicity assay, Vero-E6 cells; type: cell-based; conditions: 24 h in incubator without light exposure
# Experimental: as §1
# (§4) 6×104 Huh-7, Vero-E6 and Vero-81 cells were seeded in 96-well plates and incubated for 16 h at 37 °C 5% CO2 incubator. The cells were then treated with increasing concentrations of the compound of interest. […] The absorbance of formazan at 490 nm was detected using a plate reader (ELX 808 Bio-Tek […]
# [8] = MTS cell toxicity assay, Vero-E6 cells; type: cell-based; conditions: African green monkey, 24 h, 10 min light exposure after 1 h, read-out: 50% cytotoxic concentration (CC50)
# Experimental: as §1, §4
# HCoV-229E [9] = test: HCoV-229E infectious titers (TCID50); type: cell-based
# SARS-CoV-2 [10] = test: microbe, parasite or virus in culture; type: cell-based
# Vero-81 cells = test: MTS cell toxicity assay, Vero-81 cells; type: cell-based; conditions: 24 h in incubator without light exposure
# Experimental: as §1, §4
# [11] = MTS cell toxicity assay, Vero-81 cells; type: cell-based; conditions: African green monkey, 24 h, 10 min light exposure after 1 h, read-out: 50% cytotoxic concentration (CC50)
# Experimental: as §1, §4
# hepatitis C virus = type: cell-based, HCV
# HCoV-229E [12] = test: Trypsin-induced virus-cell fusion assay; type: cell-based; conditions: Huh-7 cells, NH4Cl, 0.5 and 1 μM
# HCoV-229E [13] = test: Attachment assay (bound virions by qRT-PCR); type: cell-based; conditions: Huh-7-TMPRSS2 cells, 4°C 1 h, 4.1 and 8.2 μM
# [14] = test system: Mucilair primary human bronchial epithelial cells; test: Mucilair toxicity assays (LDH secretion, transepithelial electrical resistance); conditions: 0.25 and 2.5 μM, up to 72 h
# SARS-CoV-2 [15] = type: cell-based; remark: listed apart in the source
# HCoV-229E [16] = test: White light exposure kinetics; type: cell-based
# [17] = test system: pseudotyped viral particles with envelope proteins of VSV, HCV, SARS-CoV-2, and MERS-CoV; type: cell-based
# SARS-CoV-2 spike protein = SARS-CoV-2 spike protein (Severe acute respiratory syndrome coronavirus 2, UniProt P0DTC2); type: cell-based
# [18] = against HCoV-229E, Huh-7 cells, normal white light exposure, read-out: IC50
# [19] = Huh-7-TMPRSS2 cells, Pba 2 μM, BSC light
compound,measurement,setting,value
C=Cc1c(C)c2cc3nc(c4c5[n-]c(cc6nc(cc1[n-]2)C(C=O)=C6CC)c(C)c5C(=O)[C@@H]4C(=O)OC)[C@@H](CCC(=O)OC/C=C(\C)CCC[C@H](C)CCC[C@H](C)CCCC(C)C)[C@@H]3C.[Mg+2] [Chlorophyll b],"antiviral activity against HCoV-229E-Luc, screening of related compounds",HCoV-229E [1],not active at the tested concentrations
[N-]=[N+]=[N-].[Na+] [NaN3],effect of quencher on antiviral action of Pba,HCoV-229E [2],able to reduce the action of Pba
"CCC1=C(C)c2cc3[nH]c(cc4nc(cc5c(CCC(=O)O)c(C)c(cc1n2)n5C)C(CCC(=O)O)=C4C)c(C)c3CC [N-Methyl mesoporphyrin IX, N-methyl mesoporphyrin IX]",CC50,Huh-7 cells,> 80 µM
same,light dependence of antiviral effect,HCoV-229E [1],light-dependent antiviral effect
same,antiviral activity under dark conditions,"HCoV-229E [1]; Huh-7 cells, dark",showed antiviral activity under dark conditions
same,IC50,HCoV-229E [1]; [18],1.25 µM
HPPH,CC50,Huh-7 cells,8.13 µM
same,light dependence of antiviral effect,HCoV-229E [1],light-dependent antiviral effect
same,IC50,HCoV-229E [1]; [18],1.14 µM
O=C1OC2(c3cc(I)c(O)c(I)c3Oc3c2cc(I)c(O)c3I)c2c(Cl)c(Cl)c(Cl)c(Cl)c21 [Rose Bengale],CC50,Huh-7 cells,> 80 µM
same,"antiviral activity against HCoV-229E-Luc, screening of related compounds",HCoV-229E [1],moderate antiviral activity
same,IC50,HCoV-229E [1]; [18],2.86 µM
c1ccc2c(c1)-c1nc-2nc2[nH]c(nc3nc(nc4[nH]c(n1)c1ccccc41)-c1ccccc1-3)c1ccccc21 [phthalocyanine],"antiviral activity against HCoV-229E-Luc, screening of related compounds",HCoV-229E [1],not active at the tested concentrations
"C=Cc1c(C)c2cc3nc(c4c5[nH]c(cc6nc(cc1[nH]2)C(C)=C6CC)c(C)c5C(=O)[C@@H]4C(=O)OC)[C@@H](CCC(=O)O)[C@@H]3C [Pba, pheophorbide a]","decrease of viral titers, SARS-CoV-2",SARS-CoV-2 [3],more than 1 log10
same,viral RNA levels of SARS-CoV-2,SARS-CoV-2 [3],significantly decreased
same,concentrations at which no toxicity was exhibited,Huh-7 cells; 24 h in incubator without light exposure,up to 120 μM
same,CC50 at 24 h,"[4]; 10 min light exposure after 1 h, read-out: 50% cytotoxic concentration (CC50)",4.4 ± 1.2 µM
same,CC50 at 24 h,"[4]; light exposure, read-out: CC50 (μM) 24 h",6.08 µM
same,"selectivity index, MERS-CoV",MERS-CoV [5],24
same,IC50,"MERS-CoV [5]; Middle East respiratory syndrome-related coronavirus, Huh-7, read-out: IC50, MERS-CoV infectious titers",0.18 µM
same,"decrease of viral titers, MERS-CoV",MERS-CoV [6],more than 1 log10
same,viral RNA levels of MERS-CoV,MERS-CoV [6],significantly decreased
same,antiviral activity on YFV (enveloped),yellow fever virus (YFV),clear antiviral effect
same,antiviral activity on CVB4 (nonenveloped),coxsackievirus (CVB4),not active
same,antiviral activity on SINV (enveloped),Sindbis virus (SINV),clear antiviral effect
same,"infectivity, compound added more than 2 h after inoculation",HCoV-229E [7],normal levels of infectivity
same,"inhibition of infection, compound added before inoculation (pretreatment of the cells)",HCoV-229E [7]; [19],no inhibition of infection
same,"inhibition of infection, compound present during inoculation",HCoV-229E [7]; [19],strong inhibition of infection
same,concentrations at which no toxicity was exhibited,Vero-E6 cells,up to 120 μM
same,CC50 at 24 h,[8],5.8 ± 1.9 µM
same,"selectivity index (SI), HCoV-229E",HCoV-229E [9]; CC50 Huh-7 / IC50 infectious titers,44
same,IC50,"HCoV-229E [9]; Human coronavirus 229E, Huh-7, 10 min, read-out: IC50, HCoV-229E infectious titers",0.1 µM
same,"selectivity index, SARS-CoV-2",SARS-CoV-2 [10],32
same,IC50,"SARS-CoV-2 [10]; Severe acute respiratory syndrome coronavirus 2, Vero C1008, read-out: IC50, SARS-CoV-2 infectious titers",0.18 µM
same,concentrations at which no toxicity was exhibited,Vero-81 cells,up to 120 μM
same,CC50 at 24 h,[11],5.5 ± 2 µM
same,antiviral activity on HCV (enveloped),hepatitis C virus,clear antiviral effect
same,infection under trypsin-mediated fusion conditions,HCoV-229E [12],strongly inhibited infection levels
same,virus attachment (bound HCoV-229E RNA levels),HCoV-229E [13],only a slight and nonsignificant decrease in RNA levels
same,toxicity (LDH secretion and transepithelial electrical resistance),[14],No toxicity was observed
same,"infectivity, compound added more than 2 h after inoculation",SARS-CoV-2 [15],normal levels of infectivity
same,"inhibition of infection, compound added before inoculation (pretreatment of the cells)",SARS-CoV-2 [15],no inhibition of infection
same,"inhibition of infection, compound present during inoculation",SARS-CoV-2 [15],strong inhibition of infection
same,antiviral effect at inactive concentration with long light exposure,"HCoV-229E [16]; 0.02 μM, 80 min light exposure",no antiviral effect
same,inhibitory effect with longer light exposure times,"HCoV-229E [16]; 0.02, 0.2, 2 μM, light 5 to 80 min",increased inhibitory effect
same,pseudoparticle infection,[17],inhibited pseudoparticle infection regardless of the nature of the viral envelope protein but only under light conditions
same,"activity against HCoV-229E-Luc, extracts and fractions","HCoV-229E [1]; Huh-7 cells, 25 μg/ml, 7 h postinoculation",the most active
same,antiviral activity in the dark,"HCoV-229E [1]; Huh-7 cells, dark, 10 μM",antiviral activity was observed
same,antiviral activity in presence or absence of TMPRSS2,HCoV-229E [1]; Huh-7 versus Huh-7-TMPRSS2 cells,No difference in antiviral activity
same,IC50,"HCoV-229E [1]; Human coronavirus 229E, Huh-7",0.54 µM
same,IC50,"HCoV-229E [1]; Human coronavirus 229E, Huh-7, 7 h, read-out: 50% inhibitory concentration (IC50) against HCoV-229E-Luc",0.51 µM
same,antiviral activity after pretreatment of virus versus no pretreatment,"HCoV-229E [1]; virus preincubated 30 min with 2 μM, diluted to 0.2 μM for inoculation, compared with 0.2 μM directly, Huh-7 cells",much stronger
same,spike-induced cell-cell fusion (syncytium formation),SARS-CoV-2 spike protein,cannot prevent cell-cell fusion
"C=CC1=C(C)c2cc3[n-]c(cc4[n-]c(cc5nc(cc1n2)C(C)=C5C=C)c(C)c4CCC(=O)O)c(CCC(=O)O)c3C.[Zn+2] [Zn protoporphyrin IX, Zn-protoporphyrin IX]",CC50,Huh-7 cells,16.6 µM
same,light dependence of antiviral effect,HCoV-229E [1],light-dependent antiviral effect
same,IC50,HCoV-229E [1]; [18],0.79 µM
